Results published in US20220372585A1, “Sensors for Aromatic Compounds and Methods of Making and Using Same” (Washington University, priority 2021, published 2022).
Entries after “also recorded” stand apart in the source; their conditions may differ. Where two headings read alike, the source gives them in different places.

What was measured:
[1] = tested on: TynA-FeaR system; experiment: microbe, parasite or virus in culture; conditions: for EC50 / fold induction at 1250 µM: Escherichia coli; for EC50: read-out: KA (half maximal constant); for fold induction at 1250 µM: read-out: fold induction of the reporter; for Fmax / Fmin / n (Hill coefficient): wild-type TynA and FeaR, pCX008, pHJY022
Method: To develop sensors for aromatic amines, the TynA-FeaR system was first characterized in EcN. A sensor plasmid was constructed, which consisted of constitutively expressed TynA and FeaR from E. coli MG1655, and a reporter plasmid, which consisted of GFP under the control of PtynA (see e.g., FIG. 3B). […] Next, the sensitivity and selectivity to different ligands was characterized.
For fluorescence-based quantification, single colonies were transferred to 5 mL LB medium (VWR, Radnor, Pa., USA) in 14 mL round bottom tubes and incubated overnight at 250 rpm and 37° C. Unless otherwise specified, experimental cultures were prepared by diluting overnight cultures 100× into 0.6 mL M9 minimal medium supplemented with 1 mM MgSO4, […]), and 2% w/v glycerol as well as the respective ligands (DA, PEA, Tyra, and Trypta) in 2 mL 96-deep well plates. Cultures were grown for 24 h at 37° C. and 250 rpm. After 5 h and 24 h of incubation, samples were obtained from the cultures for flow cytometry analysis.
Flow cytometry was performed as previously described. Culture samples were collected and diluted to a final OD600 of ˜0.005-0.01 in […] filtered phosphate-buffered saline supplemented with 2 mg/ml kanamycin in 96-well assay microplates (U-bottom, REF-353910 from BD Biosciences, San Jose, Calif., USA). The fluorescence of the samples was measured using a Millipore Guava EasyCyte High Throughput flow cytometer with a 488 nm excitation laser and 512/18 nm emission filter. Cytometry data was gated by forward and side scatter. FlowJo (TreeStar Inc.) was used to obtain the arithmetic mean of the fluorescence distribution. The averages of the arithmetic means were calculated from three biological replicates. The average fluorescence of the non-fluorescent wild-type cell was subtracted from each sample to obtain the final fluorescence (au) values (Equation 2). To obtain the relative fluorescence in FIG. 6A-FIG. 6C, fluorescence values for each variant were normalized to the fluorescence of the wild-type sensor using Equation 3.
The Hill equation (Equations 4 and 5) was used to fit lines to the fluorescence data. The model was fit to the experimentally collected data by minimizing the root mean square error (RMSE; Equation 6).

[2] = tested on: G415H TynA with wild-type FeaR; assay type: cell-based, E. coli MG1655; conditions: for response: G415H; for Fmax / Fmin / n (Hill coefficient): G415H TynA + wild-type FeaR, pCX008, pCX015
Method: (§1) Flow cytometry was performed as previously described. […] Cytometry data was gated by forward and side scatter.

[3] = tested on: G494S TynA and A81S FeaR; assay type: cell-based, E. coli MG1655; conditions: for Fmax / Fmin / n (Hill coefficient): G494S TynA + A81S FeaR, pCX008, pCX032
Method: as §1

[4] = tested on: G494S TynA with A81T FeaR; assay type: cell-based, E. coli MG1655; conditions: for response: G494S*; for Fmax / Fmin / n (Hill coefficient): G494S TynA + A81T FeaR, pCX008, pCX014
Method: as §1

[5] = tested on: G494S TynA with wild-type FeaR; assay type: cell-based, E. coli MG1655; conditions: for Fmax / Fmin / n (Hill coefficient): G494S TynA + wild-type FeaR, pCX008, pCX010
Method: as §1

[6] = tested on: wild-type TynA with A81T FeaR; assay type: cell-based, E. coli MG1655; conditions: 24 h; for effect of the A81T FeaR mutation on the response of the sensor: wild-type TynA, 1 mM, FIG. 21
Method: as §1

[7] = tested on: wild-type TynA and A81L FeaR; experiment: microbe, parasite or virus in culture; assay type: cell-based, E. coli MG1655; conditions: for response: A81L FeaR; for EC50: Escherichia coli, read-out: KA (half maximal constant), wild-type TynA + A81L FeaR
Method: as §1

[8] = tested on: wild-type TynA with A81P FeaR; experiment: microbe, parasite or virus in culture; assay type: cell-based, E. coli MG1655; conditions: for EC50: Escherichia coli, read-out: KA (half maximal constant), wild-type TynA + A81P FeaR
Method: as §1

[9] = tested on: TynA-KP with FeaR-KA I109N; experiment: GFP fluorescence from PtynA-MG with TynA-KP and FeaR-KA I109N; assay type: cell-based, Klebsiella aerogenes; conditions: for induction of fluorescence: I109N variant, 0.5 mM, 24 h, FIG. 32
Description: FIG. 32. […] Sensor system with PtynA-MG, TynA-KP and FeaR-KA was chosen as the wild type (WT) for further directed evolution. TynA-KP was employed to reduce the possible interference from DA during evolution processes. Values and error bars are the average and standard deviation of biological triplicate, respectively.
FIG. 33A-FIG. 33B. […] The expression of PtynA-MG was regulated by the TynA-KP with FeaR-KA I109N mutant. Points represent experimental data while lines represent the fitted curves. […] Values and error bars are the average and standard deviation of biological triplicate, respectively.

[10] = tested on: wild-type TynA with M83Y FeaR; experiment: PtynA-GFP reporter, wild-type TynA with M83Y FeaR (pCX068); assay type: cell-based, E. coli MG1655; conditions: pCX008, pCX068, FIG. 6D, 24 h
Method: as §1

[11] = wild-type TynA + A81T FeaR, pCX008, pCX016, FIG. 22A
[12] = wild-type TynA + A81L FeaR, pCX008, pCX024, FIG. 5C, 24 h
[13] = wild-type TynA + A81L FeaR, pCX008, pCX024, FIG. 24, 5 h
[14] = wild-type TynA + A81P FeaR, pCX008, pCX025, FIG. 25A, 5 h
[15] = wild-type TynA + A81P FeaR, pCX008, pCX025, FIG. 25B, 24 h

NCCc1c[nH]c2ccccc12 [Tryptamine, tryptamine]
EC50 ([1]; 5 h): 45 µM
EC50 ([1]; 24 h): 85 µM
fold induction at 1250 µM [1]: ~280
Fmax ([1]; FIG. 3D, 24 h induction): 268
Fmin ([1]; FIG. 3D, 24 h induction): 1.3
n (Hill coefficient) ([1]; FIG. 3D, 24 h induction): 4.3
Fmax ([1]; FIG. 14, 5 h induction): 57
Fmin ([1]; FIG. 14, 5 h induction): 5.9
n (Hill coefficient) ([1]; FIG. 14, 5 h induction): 3.1
response ([2]; 5 h, FIG. 17B): lack of response
response ([2]; 24 h, FIG. 4D): lack of response; also recorded: minimal response
response ([3]; G494S TynA and A81S FeaR, 5 h and 24 h, FIG. 23A-B): lack of response
response ([4]; 5 h, FIG. 17A): lack of response
response ([4]; 24 h, FIG. 4C): lack of response
response ([5]; G494S TynA, wild-type FeaR, 5 h and 24 h, FIG. 18A-B): lack of response
effect of the A81T FeaR mutation on the response of the sensor [6]: significantly reduced
response ([7]; 5 h, FIG. 24): lack of response
response ([7]; 24 h, FIG. 5C): lack of response
response ([8]; A81P FeaR, 5 h and 24 h, FIG. 25A-B): lack of response
response ([9]; FeaR-KA I109N, 5 h and 24 h, FIG. 33A-B): lack of response
induction of fluorescence [9]: induction of fluorescence

NCCc1ccccc1 [Phenylethylamine, phenylethylamine]
EC50 ([1]; 5 h): 42 µM
EC50 ([1]; 24 h): 87 µM
fold induction at 1250 µM [1]: > 1500
Fmax ([1]; FIG. 3D, 24 h induction): 1430
Fmin ([1]; FIG. 3D, 24 h induction): 0
n (Hill coefficient) ([1]; FIG. 3D, 24 h induction): 3.9
Fmax ([1]; FIG. 14, 5 h induction): 315
Fmin ([1]; FIG. 14, 5 h induction): 10.4
n (Hill coefficient) ([1]; FIG. 14, 5 h induction): 2
Fmax ([2]; FIG. 4D, 24 h): 84
Fmin ([2]; FIG. 4D, 24 h): 0
n (Hill coefficient) ([2]; FIG. 4D, 24 h): 0.6
Fmax ([2]; FIG. 17B, 5 h): 118
Fmin ([2]; FIG. 17B, 5 h): 0
n (Hill coefficient) ([2]; FIG. 17B, 5 h): 0.4
Fmax ([3]; FIG. 23A, 5 h): 462
Fmin ([3]; FIG. 23A, 5 h): 3.4
n (Hill coefficient) ([3]; FIG. 23A, 5 h): 1.2
Fmax ([3]; FIG. 25B, 22B [sic], 24 h): 475
Fmin ([3]; FIG. 25B, 22B [sic], 24 h): 5.9
n (Hill coefficient) ([3]; FIG. 25B, 22B [sic], 24 h): 1.5
Fmax ([4]; FIG. 4C, 22B, 24 h): 790
Fmin ([4]; FIG. 4C, 22B, 24 h): 5.4
n (Hill coefficient) ([4]; FIG. 4C, 22B, 24 h): 1.4
Fmax ([4]; FIG. 17A, 5 h): 9280
Fmin ([4]; FIG. 17A, 5 h): 1.1
n (Hill coefficient) ([4]; FIG. 17A, 5 h): 1.2
fold induction ([4]; G494S* double mutant sensor): 140 fold
Fmax ([5]; FIG. 18A, 5 h): 18
Fmin ([5]; FIG. 18A, 5 h): 0.8
n (Hill coefficient) ([5]; FIG. 18A, 5 h): 36
Fmax ([5]; FIG. 18B, 22B, 24 h): 4012
Fmin ([5]; FIG. 18B, 22B, 24 h): 3.4
n (Hill coefficient) ([5]; FIG. 18B, 22B, 24 h): 1.3
fold induction ([5]; G494S single mutant sensor): 50 fold
Fmax [6, 11]: 1010
Fmin [6, 11]: 18
n (Hill coefficient) [6, 11]: 4.3
effect of the A81T FeaR mutation on the response of the sensor [6]: insignificant impact
fold induction ([7]; A81L sensor, FIG. 5C): 580 fold
EC50 ([7]; 5 h, pCX008, pCX024, FIG. 24, 5 h): 74 µM
EC50 ([7]; 24 h, pCX008, pCX024, FIG. 5C, 24 h): 140 µM
Fmax [7, 12]: 585
Fmin [7, 12]: 4.8
KA (half maximal constant) [7, 12]: 0.137 mM
n (Hill coefficient) [7, 12]: 2.7
Fmax [7, 13]: 289
Fmin [7, 13]: 5.1
n (Hill coefficient) [7, 13]: 2.6
EC50 ([8]; 5 h, pCX008, pCX025, FIG. 25A, 5 h): 14 µM
EC50 ([8]; 24 h, pCX008, pCX025, FIG. 25B, 24 h): 50 µM
Fmax [8, 14]: 14
Fmin [8, 14]: 0.4
n (Hill coefficient) [8, 14]: 8.4
Fmax [8, 15]: 112
Fmin [8, 15]: 1.1
KA (half maximal constant) [8, 15]: 0.052 mM
n (Hill coefficient) [8, 15]: 20.3
Fmax [10]: 1004
Fmin [10]: 5.8
n (Hill coefficient) [10]: 2.1
induction of fluorescence [9]: not
